Measured values as given in article PMC3387026, “Substrate Cooperativity in Marine Luciferases” (PLoS ONE, 2012).

Columns and labels:
Assay in all cases: bioluminescence (luminometer), light integrated over first […] s
Format in all cases: biochemical
Conditions in all cases: Tris-HCl pH 7.5, BSA; varied luciferin; O2 co-substrate
GLuc [1] = biological target: T1, GLuc (Gaussia princeps (in: crustaceans), UniProt Q9BLZ2, M60L/M127L)
T1 construct: amino-terminal His tag, expressed in E. coli SHuffle, nickel-purified
T1 sequence (Q9BLZ2 entry or part of it M60L/M127L): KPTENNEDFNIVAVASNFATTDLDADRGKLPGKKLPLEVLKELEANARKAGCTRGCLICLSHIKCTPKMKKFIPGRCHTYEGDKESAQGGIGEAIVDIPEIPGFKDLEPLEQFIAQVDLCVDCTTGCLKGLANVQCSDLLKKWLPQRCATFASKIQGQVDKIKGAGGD

RLuc = biological target: T2, RLuc (Renilla reniformis, UniProt P27652)
T2 construct: His-tagged, expressed in NEB T7 Express cells, nickel-purified; 37 kDa monomer
T2 sequence (P27652 1-311): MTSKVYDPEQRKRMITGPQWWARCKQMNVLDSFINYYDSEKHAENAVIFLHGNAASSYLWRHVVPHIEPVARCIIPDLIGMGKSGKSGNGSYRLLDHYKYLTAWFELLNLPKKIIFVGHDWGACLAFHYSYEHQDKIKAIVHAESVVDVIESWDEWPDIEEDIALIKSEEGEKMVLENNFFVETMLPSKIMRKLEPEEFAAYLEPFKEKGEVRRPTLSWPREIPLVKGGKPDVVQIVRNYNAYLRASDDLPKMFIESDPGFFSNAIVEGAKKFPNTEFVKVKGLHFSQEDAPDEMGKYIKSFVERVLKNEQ

GLuc [2] = biological target: T3, GLuc (Gaussia princeps (in: crustaceans), UniProt Q9BLZ2)
T3 construct: amino-terminal His tag, expressed in E. coli SHuffle, nickel-purified
T3 sequence (Q9BLZ2 entry or part of it): as the sequence (Q9BLZ2 entry or part of it M60L/M127L) above, with L43M, L110M counted along it

Oc1ccc(Cc2nc3c(Cc4ccccc4)nc(-c4ccc(O)cc4)cn3c2O)cc1 [coelenterazine]
bioluminescence (luminometer), light integrated over first 10 s (GLuc [1]): GLuc, MLuc and the variant GLuc M43L/M110L of Welsh et al. | bioluminescence (luminometer), light integrated over first 10 s (RLuc): binding a single molecule of coelenterazine is sufficient for catalysis | bioluminescence (luminometer), light integrated over first 10 s (GLuc [2]): positive cooperative response of the GLuc activity with respect to coelenterazine
